Counter-ions that a name gives are not always drawn. Like-named read-outs stand apart in the source and are kept apart here.

This is an account of results in patent US20150313896A1, “METHOD FOR TREATING CELL PROLIFERATION DISORDERS” (Galderma Research & Development, priority 2013, published 2015).

Assay [1] relates to Albino hairless SKH1-hr mice. To be noted: for Skin Thickening: number of mice with observation / Skin Thickening: total number of observations: 40 weeks. The procedure:
Albino hairless SKH1-hr mice (36/sex/group) were treated for 40 weeks with UVR and brimonidine gel or vehicle according to the design in table 11. […] Topical treatments were performed approximately one hour before UVR on Monday, Wednesday and Friday of each week and approximately one hour after UVR Tuesday and Thursday of each week.
*Monday, Wednesday and Friday of each week: exposure to UVR approximately one hour after test item application. Tuesday and Thursday of each week: exposure to UVR approximately one hour before test item application.
The UVR exposure was 600 RBU/week for all test groups in the table.

Assay [2] has as its system SKH1 mice. The assay can be described thus: UVB-induced epidermal hyperplasia: epidermis thickness (H&E). The format is in vivo. To be noted: for Decrease of the epidermal thickness: post-treatment schedule (immediately after UVB, then twice 23 h apart). The procedure:
(§1) SKH1 mice were treated and exposed to UVB irradiation. The back skin of the mice was exposed to 120 mJ/cm^2 UVB using the Biospectra system equipped with UVB sunlamps with a maximum emission peak at 312 nm. Irradiations were performed under isoflurane gaseous anesthesia. Mice were treated with vehicle (PEG400/EtOH/PHY (30/20/50) p/p) or brimonidine tartrate at 0.2% or 2%, by weight, administrated by topical application (100 μl) on a 10 cm^2 area on the upper part of the back using a micropipette. The area is located on the upper part of the back to prevent the animals from liking themselves. Three applications were performed according to the following two treatment schedules:
(§2) (a) pre-treatment: one application 1 hour prior to UVB irradiation, followed by two more applications 23 hours apart;
(§3) (b) post-treatment: one application immediately following the UVB irradiation, followed by two more applications 23 hours apart.
(§4) A compound reference, i.e., an EGFR inhibitor at 4%, by weight, in EtOH/H2O (76/24) was also administrated according to the pre-treatment schedule.
One hour after the third topical treatment and one hour before euthanasia, mice received an intraperitoneal (i.p.) injection of 5-ethynyl-2′-deoxyuridine (EdU) at 100 mg/kg. After mouse euthanasia using cervical dislocation, the back skin was removed and immediately fixed in formol. The formol-fixed skin samples were embedded in paraffin and then submitted to immunohistological studies for epidermal thickness and EdU detection.
For epidermal thickness, two sections of 7 μm per animal were stained in hematoxylin and eosin (H&E) stain. Skin histology and the epidermis thickness were analyzed using image analysis (mScope 3.9, Aurora mScope) on scanned slide pictures (NanoZoomer C9600-12, Hamamatsu Photonics K.K).
Data were analyzed using unpaired t test for validation of the UVB irradiation and one-way ANOVA with Dunnett's multiple comparison test for the analysis of the treatment effect (Prism 6; GraphPad Software Inc., San Diego, Calif., USA). A p value of less than 0.05 was regarded as significant.

Assay [3] concerns SKH1 mice. The assay can be described thus: UVB-induced epidermal hyperplasia: EdU detection of proliferating keratinocytes. Format: in vivo. The procedure:
as §1, §2, §3, §4
One hour after the third topical treatment and one hour before euthanasia, mice received an intraperitoneal (i.p.) injection of 5-ethynyl-2′-deoxyuridine (EdU) at 100 mg/kg. After mouse euthanasia using cervical dislocation, the back skin was removed and immediately fixed in formol. […]
For EdU detection, two or three sections of 7 μm per animal were submitted to EdU staining. […] Nuclei were also stained with 4′,6-diamidino-2-phenylindole (DAPI) diluted at 5 mg/mL in Vectashield Hard Set Mounting medium for Fluorescence (ref: H-1400 Vector Laboratories). The number of keratinocytes stained with Alexa Fluor® 594 was counted from digital images (NanoZoomer C9600-12, Hamamatsu Photonics K.K) and the epidermis length of each section determined using an in house dedicated tool.
Data were analyzed using unpaired t test for validation of the UVB irradiation and one-way ANOVA with Dunnett's multiple comparison test for the analysis of the treatment effect (Prism 6; GraphPad Software Inc., San Diego, Calif., USA). […]

As for `Brc1c(NC2=NCCN2)ccc2nccnc12` [brimonidine tartrate, (5-Bromo-quinoxalin-6-yl)-(4,5-dihydro-1H-imidazol-2-yl)-amine], the “UV-induced skin thickness, statistical effect” value was “did not statistically reduce” in assay [1] (0.18% (w/w) topical), “statistically reduced” in assay [1] (1% (w/w) topical) and “statistically reduced” in assay [1] (2% (w/w) topical). Moreover, the “Skin Thickening: number of mice with observation” value in assay [1] (female mice (36 tested), 0.18% brimonidine tartrate gel topical, UVR 600 RBU/week) is given as 32; in assay [1] (female mice (36 tested), 1% brimonidine tartrate gel topical, UVR 600 RBU/week) it was 25; in assay [1] (female mice (36 tested), 2% brimonidine tartrate gel topical, UVR 600 RBU/week), 23; in assay [1] (male mice (36 tested), 0.18% brimonidine tartrate gel topical, UVR 600 RBU/week), 34; in assay [1] (male mice (36 tested), 1% brimonidine tartrate gel topical, UVR 600 RBU/week), 27; in assay [1] (male mice (36 tested), 2% brimonidine tartrate gel topical, UVR 600 RBU/week) it was 24. In addition, the “Skin Thickening: total number of observations” value was 521 in assay [1] (female mice, 0.18% brimonidine tartrate gel topical, UVR 600 RBU/week); 374 in assay [1] (female mice, 1% brimonidine tartrate gel topical, UVR 600 RBU/week); 381 in assay [1] (female mice, 2% brimonidine tartrate gel topical, UVR 600 RBU/week); 514 in assay [1] (male mice, 0.18% brimonidine tartrate gel topical, UVR 600 RBU/week); 392 in assay [1] (male mice, 1% brimonidine tartrate gel topical, UVR 600 RBU/week); 367 in assay [1] (male mice, 2% brimonidine tartrate gel topical, UVR 600 RBU/week). The “UV-induced skin thickening, effect in words” value in assay [1] (topical 0.18%, 1% and 2%, UVR 600 RBU/week) is “dose-dependent reduction”. The “Decrease of the epidermal thickness” value was −16% in assay [2] (0.2% (w/w) topical) and −32% in assay [2] (2% (w/w) topical). Also, the “Inhibition of UVB-induced acanthosis (epidermis thickness)” value in assay [2] (0.2% (w/w) topical, pre-treatment schedule) is reported as “no effect”; in assay [2] (2% (w/w) topical, pre-treatment schedule (1 h before UVB 120 mJ/cm^2, then twice 23 h apart)), −23%. Further, the “Reduction of the number of EdU positive cells” value in assay [3] (0.2% topical, post-treatment schedule) is on record as 25%; in assay [3] (2% topical, post-treatment schedule) it was −64%; in assay [3] (2% topical, pre-treatment schedule), −59%.
